# Test results: PMC7549214 (Malaria Journal, 2020)
# Like-named read-outs stand apart in the source and are kept apart here.
# Columns and labels:
# [1] = system: human HDAC (HeLa nuclear extract); experiment: HDAC activity screening, fluorescence-based, HeLa nuclear extract; assay type: biochemical
# Experimental: HeLa nuclear extract was used as the enzyme source. […] The assay was performed in 96-well black microplates, and the total volume of the assay was set at 100 µl. […] The enzyme mixture was prepared by adding […] of the diluted enzyme (HeLa nuclear extract) to […] of HDAC buffer. From the enzyme mixture, 40 µl was taken and mixed with 10 µl of test compound (final concentration from 0.01 to 10 µM) or vehicle (control). The final mixture (50 µl) was added to each well which was then pre-incubated at 37 °C for 10 min. The HDAC reaction was started by adding 50 µl of HDAC substrate: […] The plate was incubated at 37 °C for 45 min. Trypsin stop solution (50 µl) was added to the well, and the plate was further incubated at 37 °C for 15 min to stop the reaction. The release of AMC was monitored by measuring the fluorescence at an excitation wavelength of 360 nm and an emission wavelength of 460 nm. Buffer and substrate alone served as blank.
# human HDAC2 = human HDAC2 (Homo sapiens, UniProt Q92769); experiment: Isoform selectivity, recombinant HDAC isoforms; assay type: biochemical; conditions: single experiment assays
# Experimental: Isoform selectivity was tested using recombinant HDAC isoforms (Biomol, USA).
# female gametocytes = experiment: Female gametocyte functional viability assay; assay type: cell-based; conditions: Plasmodium falciparum
# [2] = system: Dd2 DDD107498 (PfeEF2 Y186N); experiment: microbe, parasite or virus in culture; assay type: cell-based; conditions: Plasmodium falciparum
# Cam3.I (MRA1240) = experiment: microbe, parasite or virus in culture; assay type: cell-based; conditions: Plasmodium falciparum
# Plasma protein binding [3] = assay type: in vitro ADME; conditions: rat, read-out: Plasma protein binding (% bound)
# Plasma protein binding [4] = assay type: in vitro ADME; conditions: dog, read-out: Plasma protein binding (% bound)
# Plasma protein binding [5] = assay type: in vitro ADME; conditions: monkey, read-out: Plasma protein binding (% bound)
# Microsomal stability [6] = assay type: in vitro ADME, mouse; conditions: MLM, Test Conc. 10 µM
# Microsomal stability [7] = assay type: in vitro ADME, human; conditions: HLM, Test Conc. 10 µM
# in vitro [8] = assay type: in vitro ADME; conditions: mouse, plasma
# in vitro [9] = assay type: in vitro ADME; conditions: rat, plasma
# CYP2C9 = CYP2C9 (Homo sapiens, UniProt P11712); experiment: CYP inhibition; assay type: in vitro ADME; conditions: read-out: CYP inhibition IC50, CYP 2C9
# CYP2C19 = CYP2C19 (Homo sapiens, UniProt P33261); experiment: CYP inhibition; assay type: in vitro ADME; conditions: read-out: CYP inhibition IC50, CYP 2C19
# CYP 2D6 = CYP 2D6 (Homo sapiens, UniProt P10635); experiment: CYP inhibition; assay type: in vitro ADME
# Cytotoxicity = assay type: cell-based; conditions: human, THP-1 cells
# THP-1 = experiment: Cytotoxicity; assay type: cell-based
# hERG = hERG (Homo sapiens, UniProt Q12809); experiment: hERG binding
# [10] = Single dose pharmacokinetics in SCID mice; assay type: in vivo; conditions: female, C.B-17/IcrHsd-Prkdc^scidLyst^bg (SCID), mouse, plasma; infected SCID mice, oral, 50 mg/Kg
# Experimental: (§1) Female […] mice (n = 3) aged 7-8 weeks and weighing around 20 to 22 g were used for experimentation after a minimum 7 days of acclimation. Male BALB/c mice (n = 3) aged 8-10 weeks and weighing around 20 to 22 g were also used for experimentation after a minimum 7 days of acclimation. […] Feed was offered 2 h post-dose. Under mild isofluorane […], blood samples were collected by retro-orbital route into labelled centrifuge tubes containing K2EDTA anticoagulant at a concentration of 2 mg/mL of blood during the next 24 h post-dose. Collected blood samples were centrifuged at 4000 rpm for 10 min, and harvested plasma samples were stored at - 80 °C until analysis.
# [11] = Single dose pharmacokinetics in Balb/C mice; assay type: in vivo; conditions: normal Balb/C mice; for half-life / AUC(0-t) / Cmax / Tmax: male, mouse, plasma; for half-life: BALB/c, 50 mg/kg
# Experimental: as §1
# [12] = system: P. falciparum Pf3D7^0087/N9; experiment: Therapeutic efficacy in SCID mouse model of human falciparum malaria; assay type: in vivo, Plasmodium falciparum in NODscidIL2Rγ^null mice; conditions: for Parasitaemia after 4 days of administration: intraperitoneally, vehicle control 8.43%; for Parasitaemia: oral, vehicle-treated group 7.69%, n = 2
# Experimental: For the dose–response study, 50 mg of the compound was used in quintuplicate. Chloroquine (Sigma-Aldrich C6628) was used as the standard drug. The volume of 10 mL/kg was used for administration. Briefly, at day 0, in vitro cultures with approximately 2–5% parasitaemia were taken and diluted in culture medium to 2 × 10^7 parasitized erythrocytes per 0.1 ml. This suspension was injected iv into experimental groups and a control group of n = 2 mice. From day 3 to 6 days post-infection, the experimental groups were treated with a single daily dose by the oral (po) route. Other routes, such as intramuscular and subcutaneous, were also tested using the same protocol. The drug concentration was adjusted in a way to administer 10 ml/kg. […] At 7th day post-infection, 2 μl tail blood was taken. The haematocrit was determined by FACS and parasitaemia by microscopy on > 10,000 red blood cells.
# The difference of the mean infection rate of the control group (= 100%) to the test group was calculated and expressed as per cent reduction. […] The results were expressed as a reduction of parasitaemia at day 7 in % as compared to the untreated control group. Values are expressed as mean ± SD.
# CYP2C9, sequence (P11712 whole entry, species assumed): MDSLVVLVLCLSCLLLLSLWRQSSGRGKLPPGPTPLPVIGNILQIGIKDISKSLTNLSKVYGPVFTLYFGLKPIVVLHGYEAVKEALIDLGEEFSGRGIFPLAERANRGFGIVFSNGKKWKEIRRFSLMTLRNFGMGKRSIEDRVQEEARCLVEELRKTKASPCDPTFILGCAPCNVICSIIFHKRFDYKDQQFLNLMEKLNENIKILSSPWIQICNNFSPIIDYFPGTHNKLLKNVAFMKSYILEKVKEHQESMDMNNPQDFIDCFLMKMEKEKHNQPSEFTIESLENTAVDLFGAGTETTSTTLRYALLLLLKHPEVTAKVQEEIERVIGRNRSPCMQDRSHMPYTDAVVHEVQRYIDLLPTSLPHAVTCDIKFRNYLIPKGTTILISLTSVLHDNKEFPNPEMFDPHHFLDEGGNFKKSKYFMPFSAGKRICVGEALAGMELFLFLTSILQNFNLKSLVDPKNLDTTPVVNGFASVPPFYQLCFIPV
# CYP 2D6, sequence (P10635 whole entry, species assumed): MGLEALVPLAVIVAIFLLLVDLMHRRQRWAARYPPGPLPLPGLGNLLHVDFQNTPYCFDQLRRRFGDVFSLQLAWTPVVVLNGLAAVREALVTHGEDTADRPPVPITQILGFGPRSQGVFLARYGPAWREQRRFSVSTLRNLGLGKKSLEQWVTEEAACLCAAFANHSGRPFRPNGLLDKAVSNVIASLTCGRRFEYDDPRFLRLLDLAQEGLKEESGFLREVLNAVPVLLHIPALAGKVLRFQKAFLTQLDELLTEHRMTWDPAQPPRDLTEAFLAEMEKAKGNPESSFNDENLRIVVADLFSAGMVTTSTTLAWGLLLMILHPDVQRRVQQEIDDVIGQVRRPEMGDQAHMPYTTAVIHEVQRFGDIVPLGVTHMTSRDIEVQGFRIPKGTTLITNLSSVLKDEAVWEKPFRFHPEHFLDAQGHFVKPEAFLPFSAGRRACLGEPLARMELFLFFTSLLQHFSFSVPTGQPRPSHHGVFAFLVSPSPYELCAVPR
# human HDAC2, sequence (Q92769 whole entry, canonical isoform): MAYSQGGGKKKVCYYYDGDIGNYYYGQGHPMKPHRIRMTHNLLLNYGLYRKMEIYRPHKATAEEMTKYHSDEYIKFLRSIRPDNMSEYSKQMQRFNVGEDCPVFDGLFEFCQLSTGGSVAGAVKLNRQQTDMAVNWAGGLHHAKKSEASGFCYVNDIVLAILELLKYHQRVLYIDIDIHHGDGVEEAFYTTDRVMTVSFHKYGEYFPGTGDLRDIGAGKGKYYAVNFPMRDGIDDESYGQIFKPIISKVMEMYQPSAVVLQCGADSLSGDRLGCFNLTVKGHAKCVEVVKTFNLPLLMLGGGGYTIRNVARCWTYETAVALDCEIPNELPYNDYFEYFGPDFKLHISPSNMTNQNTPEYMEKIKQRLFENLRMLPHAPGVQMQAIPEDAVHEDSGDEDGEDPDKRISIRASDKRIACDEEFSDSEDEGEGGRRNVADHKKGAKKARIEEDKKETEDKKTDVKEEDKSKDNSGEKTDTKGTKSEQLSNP
# hERG, sequence (Q12809 whole entry): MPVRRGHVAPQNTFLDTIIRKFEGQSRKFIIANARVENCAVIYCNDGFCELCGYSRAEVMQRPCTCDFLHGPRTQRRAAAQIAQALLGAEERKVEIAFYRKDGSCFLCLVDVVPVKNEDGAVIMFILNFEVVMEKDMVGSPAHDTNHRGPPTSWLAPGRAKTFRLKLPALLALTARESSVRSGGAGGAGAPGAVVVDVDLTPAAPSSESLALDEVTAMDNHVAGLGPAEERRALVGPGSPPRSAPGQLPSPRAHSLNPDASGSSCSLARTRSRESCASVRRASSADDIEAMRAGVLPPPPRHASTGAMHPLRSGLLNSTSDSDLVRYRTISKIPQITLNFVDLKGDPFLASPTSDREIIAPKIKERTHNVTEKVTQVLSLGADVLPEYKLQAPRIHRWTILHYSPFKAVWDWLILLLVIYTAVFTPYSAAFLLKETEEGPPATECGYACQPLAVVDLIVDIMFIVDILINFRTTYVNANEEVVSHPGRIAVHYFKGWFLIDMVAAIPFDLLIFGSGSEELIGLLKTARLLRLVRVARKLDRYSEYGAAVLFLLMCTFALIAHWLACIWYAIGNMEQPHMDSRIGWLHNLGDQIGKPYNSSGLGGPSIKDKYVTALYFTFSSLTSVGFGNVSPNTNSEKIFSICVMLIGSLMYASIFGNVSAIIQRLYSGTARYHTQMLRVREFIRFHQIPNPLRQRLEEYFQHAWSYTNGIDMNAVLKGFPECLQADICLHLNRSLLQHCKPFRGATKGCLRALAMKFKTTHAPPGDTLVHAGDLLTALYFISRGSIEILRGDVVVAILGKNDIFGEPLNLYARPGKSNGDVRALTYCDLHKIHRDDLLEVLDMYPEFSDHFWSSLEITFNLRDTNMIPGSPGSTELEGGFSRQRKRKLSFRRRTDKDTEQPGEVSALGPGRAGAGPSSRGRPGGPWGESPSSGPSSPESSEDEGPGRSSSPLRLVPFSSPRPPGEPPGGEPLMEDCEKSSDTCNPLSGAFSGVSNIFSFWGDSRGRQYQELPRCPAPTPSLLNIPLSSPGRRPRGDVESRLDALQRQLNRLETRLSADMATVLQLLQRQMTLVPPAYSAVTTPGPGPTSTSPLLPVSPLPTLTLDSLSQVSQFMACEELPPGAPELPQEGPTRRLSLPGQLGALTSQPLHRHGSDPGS
# CYP2C19, sequence (P33261 whole entry, species assumed): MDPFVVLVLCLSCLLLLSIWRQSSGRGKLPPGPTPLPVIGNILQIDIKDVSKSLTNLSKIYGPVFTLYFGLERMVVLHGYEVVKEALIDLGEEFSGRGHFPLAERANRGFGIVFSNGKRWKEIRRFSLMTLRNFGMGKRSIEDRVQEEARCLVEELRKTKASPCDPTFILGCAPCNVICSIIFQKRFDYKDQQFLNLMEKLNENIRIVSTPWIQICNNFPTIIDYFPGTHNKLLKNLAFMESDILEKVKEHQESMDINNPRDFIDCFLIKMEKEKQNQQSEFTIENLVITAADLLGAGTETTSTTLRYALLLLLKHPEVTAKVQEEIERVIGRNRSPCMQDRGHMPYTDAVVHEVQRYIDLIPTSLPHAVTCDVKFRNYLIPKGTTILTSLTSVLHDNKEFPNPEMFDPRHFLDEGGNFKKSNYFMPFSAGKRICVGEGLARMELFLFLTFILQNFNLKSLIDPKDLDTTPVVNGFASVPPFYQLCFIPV
compound,measurement,setting,value
O=C(NO)c1ccc(Cn2cc(-c3ccc(CN4CCCC4)cc3)nn2)cc1 [FNDR-20123],Human HDAC % inhibition @1μM,[1]; 1μM,95%
same,IC50,"[1]; HeLa nuclear extract, read-out: Human HDAC IC50",3 nM
same,IC50,"[1]; single experiment assays, read-out: IC50 HeLa nuclear extract",3 nM
same,IC50,human HDAC2,29 nM
same,IC50,female gametocytes,> 5 µM
same,IC50,[2],20.9 nM
same,IC50,Cam3.I (MRA1240),22.1 nM
same,fraction unbound,Plasma protein binding [3],0.581
same,fraction unbound,Plasma protein binding [4],> 0.8
same,fraction unbound,Plasma protein binding [5],> 0.8
same,Microsomal stability (% remaining at 120 min),Microsomal stability [6],76.15%
same,"remaining at 2 h, 10 µM","Microsomal stability [6]; mouse, liver microsomes, read-out: Microsomal stability (% remaining at 120 min)",> 75%
same,Microsomal stability (% remaining at 120 min),Microsomal stability [7],85.31%
same,"remaining at 2 h, 10 µM","Microsomal stability [7]; human, liver microsomes, read-out: Microsomal stability (% remaining at 120 min)",> 75%
same,remaining at 4 h,in vitro [8],89.2%
same,remaining at 4 h,in vitro [9],88.9%
same,IC50,CYP2C9,> 60 µM
same,IC50,CYP2C19,> 60 µM
same,IC50,CYP 2D6,28 µM
same,IC50,Cytotoxicity,114 µM
same,Cytotoxicity to THP-1 cell line,THP-1,negligible cytotoxicity
same,IC50,hERG,> 100 µM
same,AUC(0-t),[10],1340 ng·h/mL
same,Cmax,[10],460 ng/mL
same,Tmax,[10],1 h
same,half-life,"[11]; im, intramuscular",523 min
same,half-life,[11]; po,120 min
same,half-life,"[11]; sc, subcutaneous",553 min
same,AUC(0-t),"[11]; im, intramuscular, 50 mg/Kg",7220 ng·h/mL
same,Cmax,"[11]; im, intramuscular, 50 mg/Kg",15700 ng/mL
same,Tmax,"[11]; im, intramuscular, 50 mg/Kg",4.8 min
same,AUC(0-t),"[11]; sc, subcutaneous, 50 mg/Kg",11000 ng·h/mL
same,Cmax,"[11]; sc, subcutaneous, 50 mg/Kg",14000 ng/mL
same,Tmax,"[11]; sc, subcutaneous, 50 mg/Kg",4.8 min
same,AUC(0-t),"[11]; oral, 50 mg/Kg",327 ng·h/mL
same,Cmax,"[11]; oral, 50 mg/Kg",184 ng/mL
same,Tmax,"[11]; oral, 50 mg/Kg",60 min
same,t1/2,"[11]; oral, 50 mg/Kg",2.02 h
same,Reduction of parasitaemia,[12]; dosed orally and subcutaneously,reduce parasitaemia significantly
same,Parasitaemia after 4 days of administration,[12]; 50 mg/kg bw,0.12%
same,Parasitaemia after 4 days of administration,[12]; 100 mg/kg bw,0.19%
same,Parasitaemia,[12]; 10 mg/kg bw for 4 days,6.5%
same,Parasitaemia,[12]; 50 mg/kg bw for 4 days,2.57%
